Drawing on ChEMBL document CHEMBL1142428, “Noreupenifeldin, a tropolone from an unidentified ascomycete” (J Nat Prod, 2008), this text covers Activity, EC90 and IC50 for 4 molecules.

In brackets after ≈: the same amount, converted by molar mass. Activity calls are given as the source filed them. The rule behind the calls is not given here.

The test system of assay [1] is Haemonchus contortus. Briefly: Anthelmintic activity against Haemonchus contortus assessed as reduction in L3 larval motility. Type of assay: functional.
Assay [2] concerns the target Stromelysin-1 (Homo sapiens, UniProt P08254). Put plainly: Inhibition of stromelysin mediated beta-casein cleavage.

Sequence of Stromelysin-1 (P08254 whole entry): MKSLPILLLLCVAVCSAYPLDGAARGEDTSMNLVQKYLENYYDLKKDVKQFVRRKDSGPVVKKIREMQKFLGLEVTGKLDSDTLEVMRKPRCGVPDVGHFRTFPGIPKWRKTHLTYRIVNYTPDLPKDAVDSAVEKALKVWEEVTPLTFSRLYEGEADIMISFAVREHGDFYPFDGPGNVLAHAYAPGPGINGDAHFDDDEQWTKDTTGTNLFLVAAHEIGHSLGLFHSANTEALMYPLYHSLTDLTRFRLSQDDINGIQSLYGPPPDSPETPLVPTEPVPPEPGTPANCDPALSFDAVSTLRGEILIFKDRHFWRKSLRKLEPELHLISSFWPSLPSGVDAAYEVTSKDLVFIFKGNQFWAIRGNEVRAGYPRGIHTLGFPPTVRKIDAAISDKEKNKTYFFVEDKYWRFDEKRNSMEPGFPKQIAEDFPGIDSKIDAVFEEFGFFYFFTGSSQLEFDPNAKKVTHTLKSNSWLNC

Take `Cc1cc(=O)c(O)cc2c1C[C@@H]1CC(C)(C)/C=C/C[C@@]3(C)Oc4cc(O)cc(C)c4C[C@@H]3C[C@@H](O)[C@]1(C)O2`: the outcome in assay [1] was inactive. Broadly, the EC90 is the point of the concentration-response curve where the effect stands at 90%. For IVERMECTIN, in assay [1], the EC90 was 0.18 µg/mL.

For the molecule `Cc1cc(=O)c(O)cc2c1C[C@@H]1CC(C)(C)/C=C/C[C@@]3(C)Oc4cc(O)c(=O)cc(C)c4C[C@@H]3C[C@@H](O)[C@]1(C)O2` [EUPENIFELDIN], in assay [1], the EC90 amounted to 50 µg/mL (≈ 91.1 µM). A word on the IC50: it is the concentration at which inhibition is half-maximal. A higher IC50 goes with weaker potency in that assay. On to `Cc1cc(=O)c(O)cc2c1C[C@H]1CC(C)(C)/C=C/C[C@@]3(C)Oc4cc(O)c(=O)cc(C)c4C[C@@H]3C[C@H](O)[C@]1(C)O2` [PYCNIDIONE], for which the EC90 in assay [1] was 83 µg/mL (≈ 151 µM). Further, the IC50 in assay [2] is 31 µM.
